Among the data in patent US4021479A, “Derivatives of 4-(4-biphenylyl)-butyric acid” (Boehringer Ingelheim GmbH, priority 1971, dated 1977) are LD50, animals died and ED35 values, retold here.

What is called LD50 is the dose at which mortality reaches 50%. Low values mean a more toxic substance, high ones a less toxic substance.

Structures can show the parent of a compound that is named as a salt.

Format in all cases: in vivo
Series [1] is described as follows: acute toxicity (LD50) in adult laboratory rats. The following applies: rat, in vivo, po, adult rats, observation period of 14 days. The procedure:
(§1) The acute toxicities of the compounds (LD50) were determined in adult laboratory rats from the percentage of animals which died after administration of varying doses within an observation period of 14 days [see J. Pharmacol. exper. Therap. 96, 99 1949)].

The test system of another series is adult laboratory rats. The series can be described thus: acute toxicity (LD50) in adult laboratory rats. The following applies: p.o., rats, printed in parentheses under the LD50 bound; observation period of 14 days. The procedure: as §1
The test system of series [2] is kaolin-induced edema in the hind paw of rats. The series can be described thus: antiexudative action against the kaolin-induced edema in the hind paw of rats (Hillebrecht). The following applies: Rattus norvegicus, po, dose which produces a 35% reduction in the edematous swelling. Here is the method: The antiphlogistic activity of the compounds of the present invention was ascertained by the standard test method Hillebrecht described in Arzneimittelforschung 4, 607-614 (1954), i.e. in terms of the antiexudative action against the kaolin-induced edema in the hind paw of rats. The measurements were carried out by the method of Doepfner and Cerletti, Int. Arch. Allergy and Appl. Immunology 12, 89-97 (1958). The data thus obtained were plotted on a dose-activity graph, and from the resulting curve the dose which produces a 35% reduction in the edematons swelling (ED35) was graphically calculated for each compound.

For `O=C(O)CCC(O)c1ccc(-c2ccccc2[N+](=O)[O-])cc1` (centres unmarked) [A, cyclohexylamine salt of 4-(2'-nitro-4-biphenylyl)-4-hydroxy-butyric acid], in series [1], the LD50 at 336 h is greater than 500 mg/kg. In addition, the animals died in the series with adult laboratory rats was 0 out of 5. The ED35 in series [2] stood at 30 mg/kg.

In series [1], `Nc1ccccc1-c1ccc(C(O)CCC(=O)O)cc1` (centres unmarked) [B, cyclohexylamine salt of 4-(2'-amino-4-biphenylyl)-4-hydroxy-butyric acid] gave a median lethal dose (LD50) at 336 h of 1340 mg/kg. The compound further came in with an ED35 in series [2] of 66 mg/kg.

Turning to `O=C(O)CCCc1ccc(-c2ccccc2[N+](=O)[O-])cc1` [C, cyclohexylamine salt of 4-(2'-nitro-4-biphenylyl)-butyric acid], the LD50 at 336 h in series [1] was greater than 1000 mg/kg. The animals died in the series on adult laboratory rats is listed as 3 out of 10. The compound also gave an ED35 in series [2] of 66 mg/kg.

As for `O=C(O)CCC(O)c1ccc(-c2ccccc2Cl)cc1` (centres unmarked) [Compound E, cyclohexylamine salt of 4-(2'-chloro-4-biphenylyl)-4-hydroxy-butyric acid], the LD50 at 336 h in series [1] was greater than 1000 mg/kg. In the series with adult laboratory rats, the animals died is 1 out of 10. The compound further registered an ED35 in series [2] of 27 mg/kg.

`O=C(O)CCCc1ccc(-c2ccccc2F)cc1` [D, cyclohexylamine salt of 4-(2'-fluoro-4-biphenylyl)-butyric acid] registered an LD50 at 336 h in series [1] greater than 500 mg/kg. The animals died with adult laboratory rats is on record as 0 out of 10. Moreover, the ED35 in series [2] came to 37 mg/kg.

With `O=C(O)CCCc1ccc(-c2ccccc2Cl)cc1` [F, cyclohexylamine salt of 4-(2'-chloro-4-biphenylyl)-butyric acid], in series [1], the LD50 at 336 h was greater than 1000 mg/kg. Moreover, the animals died in the series on adult laboratory rats was 2 out of 10. For the same compound, in series [2], the ED35 amounted to 50 mg/kg.

For the compound `O=C(O)CCCc1ccc(-c2ccc([N+](=O)[O-])cc2)cc1` [G, cyclohexylamine salt of 4-(4'-nitro-4-biphenylyl)-butyric acid], the LD50 at 336 h in series [1] is greater than 1000 mg/kg. The animals died in the series with adult laboratory rats is reported as 0 out of 10. This compound also came in with an ED35 in series [2] of 30 mg/kg.
